Assay results reported in patent US9050341B2, “Methods of treating drug resistant and other tumors by administering 6,7-dialkoxy quinazoline derivatives” (NATCO PHARMA LIMITED, priority 2009, dated 2015).

Key:
[1] = Acute oral toxicity (MTD) in Wistar rats; format: in vivo
[2] = Functional observational battery (FOB); format: in vivo, Wistar rats
Method: The study was conducted in accordance with “S7A Safety Pharmacology Studies for Human Pharmaceuticals, ICH” July 2001, and as per this study protocol. […] Rats that had been fasted for 16 to 18 hours (access to water was not interrupted) were dosed with the compound or water. The rats were administered the compound in an aqueous formulation at three levels, 75, 125 and 250 mg/kg b.wt, as a single oral dose by gavage. The control group received water. The rats were subjected to the FOB 60-120 min. after drug administration.
Animals were subjected to the FOB one at a time except for the multiple activity cage where four animals were placed in four different cages simultaneously. Once complete, the animals were returned to their home cage and the cage placed back on the stand.
The FOB can be employed to assess multiple neurobiological domains including neuromuscular (weakness, in coordination, gait and tremor), sensory (audition, vision and somatosensory), and autonomic (pupil response and salivation) functions. The measures of a neuro behavioral screening battery have been divided into specific functional domains. For example, Lacrimation, salivation, pupil response, palpebral closure, defecation and urination are measures of some aspects of the autonomic system. Similarly the neuro muscular domain can be assessed based on the gait/mobility score, landing foot splay, grip strength and righting reflex; sensorimotor domain based on response to tail pinch and click/touch/approach response; CNS excitability domain based on ease of removal and handling of the animal, clonic/tonic movements, arousal and vocalization; CNS activity domain based on home cage posture, palpebral closure, rearing and motor activity and finally the physiological domain is assessed based on the body weight, body temperature and piloerection.

[3] = 30 day repeated dose toxicity in beagle dogs; format: in vivo
Method: The methods followed were as per CPMP/SWP/1042/99 (July 2000) and ICH S3A (March (1995)) guidelines. Prior to the 30 day repeated dose study, a dose range finding study was conducted, which included single dose MTD study followed by a 10 day repeated dose study. […]. The route of dosing was oral, by gelatin capsule. Based on the results of the dose range finding study, doses for the 30 days study were selected.
The 30 day repeated dose study employed 12 male and 12 female dogs (Marshall's Farm, China). The dogs were acclimatized for a minimum period of 2 weeks and randomly divided into four main groups (G1-G4), each group comprising of 3 dogs per sex. The animals were dosed orally with capsules of NRC-2694A for a period of 30 consecutive days at dose levels of 10 mg/kg b.wt/day (G2-low dose), 20 mg/kg b.wt/day (G3-mid dose) and 40 mg/kg b.wt/day (G4-high dose). […]. The control group (G1-0 mg/kg b. wt/day) animals were dosed by oral capsule with placebo.
The study also tracked body weight (weekly), food consumption (daily), opthalmological status (start and end), hematological and biochemical analyses (start and end), toxicokinetics analysis of plasma (start and end). […]

[4] = Respiratory function, whole body plethysmograph; format: in vivo; conditions: conscious male Wistar rats, 75, 125 and 250 mg/kg oral, 3 hours
Method: This study evaluated the effect of NRC-2694A monohydrochloride on respiratory function in conscious Wistar rats following administration of a single dose using a whole body plethysmograph. The study was conducted in accordance with “S7A Safety Pharmacology Studies for Human Pharmaceuticals, ICH” issued July 2001. The study used a parallel design with one vehicle and three test item treated groups. […] Male Wistar rats were placed in plethysmography chambers and baseline respiratory parameters were recorded for 30 minutes. Following drug administration respiratory parameters were recorded continuously for 3 hours.

[5] = test system: Salmonella typhimurium (TA 98, TA 100, TA 102, TA 1535 and TA 1537); experiment: Ames bacterial reverse mutation assay; conditions: five tester strains, with or without S9
Method: The present study was conducted by the direct plate incorporation method with five tester strains of Salmonella typhimurium (TA 98, TA 100, TA 102, TA 1535 and TA 1537). […] Simultaneously, negative control cultures received DMSO and the respective positive controls received the mutagens 2-Amino anthracene, 2-Nitrofluorene, Sodium azide, 9-Aminoacridine and Mitomycin C (Sigma, St. Louis). In order to study the role of metabolic activation, cultures were incubated both with and without S9 mixture. The induction of Histidine positive colonies was computed and results were statistically treated for comparison.

[6] = Cardiovascular parameters in telemetered dogs; format: in vivo, Beagle dogs; conditions: for cardiovascular parameters (blood pressure, pulse pressure, heart rate, QT and QTcf intervals): telemetered male Beagle dogs, 15, 30 and 60 mg/kg b.wt. oral
Method: The study was conducted in accordance with ICH “S7A Safety Pharmacology Studies for Human Pharmaceuticals, Note for Guidance on Safety Pharmacology Studies for Human Pharmaceuticals, July 2001”. The doses tested were 0, 15, 30 and 60 mg/kg b.wt. given orally by gelatin capsule. Four male Beagle dogs, each implanted with a TL1IM2-D70-PCT transmitter (Data Sciences International, USA), were used for the study. During the study, the dogs were administered 4 oral treatments representing placebo and all test substance treatment groups with a three day (˜72 hour) wash-out period between each administration, using a Latin square cross-over design.
On dosing days, the telemetered dogs were observed once before commencement of data collection, continuously through 2 hours post-dose remotely and ˜8 hours post-dose for changes in behaviour. Cardiovascular parameters (systolic, diastolic and mean blood pressure, pulse pressure and heart rate) were recorded continuously for ˜60 minutes before dosing and up to 24 hours after dosing. Systolic, diastolic and mean blood pressures, pulse pressure and heart rate were obtained from the femoral artery waveform. Electrocardiograms were recorded continuously for ˜60 minutes before dosing and up to 24 hours after dosing. Electrocardiograms were obtained from subcutaneously placed bio-potential leads in a Lead II configuration. Heart rate and QT intervals were determined from the ECG's.

MLK3 = target: T1, MLK3 (Homo sapiens, UniProt Q16584); experiment: KinomeScan kinase profiling; format: binding
T1 construct: host or cells: T7 phage in E. coli host derived from BL21

CHEK1 = target: T2, CHEK1 (Homo sapiens, UniProt O14757); experiment: KinomeScan kinase profiling; format: binding
T2 construct: host or cells: T7 phage in E. coli (BL21-derived)

PKAC-alpha = target: T3, PKAC-alpha (Homo sapiens, UniProt P17612); experiment: KinomeScan kinase profiling; format: binding
T3 construct: purchased Ambit Biosciences Corp (KinomeScan); host or cells: E. coli host derived from BL21, infected with T7 phage

hERG channel = hERG channel (Homo sapiens, UniProt Q12809); experiment: hERG whole cell patch-clamp in CHO cells; conditions: 10 μM
Method: The test compound was evaluated at 10 μM in 0.1% DMSO (v/v). […] The vehicle control was 0.1% (v/v) DMSO in EC solution.
The selection medium was F-12 (Ham)+GlutaMAX, Ph 7.2, 10% FBS, Penicillin (100 U/mL), Streptomycin (100 μg/mL), Blasticidin S HCL (30 μg/mL) and Hygromycin B (400 μg/mL). The growth medium was F-12 (Ham)+GlutaMAX, 10% FBS, Penicillin (100 U/mL) and Streptomycin (100 μg/mL). The induction medium was F-12 (Ham)+GlutaMAX, 10% FBS, Penicillin (100 U/mL) and Streptomycin (100 μg/mL) and Doxycycline (3 μg/mL). The cell dissociation solution was 0.05% Trypsin-EDTA.

MEK6 = target: T4, MEK6 (Homo sapiens, UniProt P52564); experiment: KinomeScan kinase profiling; format: binding
T4 construct: host or cells: E. coli derived from BL21, infected with T7 phage

MARK1 = target: T5, MARK1 (Homo sapiens, UniProt Q9P0L2); experiment: KinomeScan kinase profiling; format: binding
T5 construct: host or cells: E. coli derived from BL21, infected with T7 phage
T5 sequence (Q9P0L2 whole entry): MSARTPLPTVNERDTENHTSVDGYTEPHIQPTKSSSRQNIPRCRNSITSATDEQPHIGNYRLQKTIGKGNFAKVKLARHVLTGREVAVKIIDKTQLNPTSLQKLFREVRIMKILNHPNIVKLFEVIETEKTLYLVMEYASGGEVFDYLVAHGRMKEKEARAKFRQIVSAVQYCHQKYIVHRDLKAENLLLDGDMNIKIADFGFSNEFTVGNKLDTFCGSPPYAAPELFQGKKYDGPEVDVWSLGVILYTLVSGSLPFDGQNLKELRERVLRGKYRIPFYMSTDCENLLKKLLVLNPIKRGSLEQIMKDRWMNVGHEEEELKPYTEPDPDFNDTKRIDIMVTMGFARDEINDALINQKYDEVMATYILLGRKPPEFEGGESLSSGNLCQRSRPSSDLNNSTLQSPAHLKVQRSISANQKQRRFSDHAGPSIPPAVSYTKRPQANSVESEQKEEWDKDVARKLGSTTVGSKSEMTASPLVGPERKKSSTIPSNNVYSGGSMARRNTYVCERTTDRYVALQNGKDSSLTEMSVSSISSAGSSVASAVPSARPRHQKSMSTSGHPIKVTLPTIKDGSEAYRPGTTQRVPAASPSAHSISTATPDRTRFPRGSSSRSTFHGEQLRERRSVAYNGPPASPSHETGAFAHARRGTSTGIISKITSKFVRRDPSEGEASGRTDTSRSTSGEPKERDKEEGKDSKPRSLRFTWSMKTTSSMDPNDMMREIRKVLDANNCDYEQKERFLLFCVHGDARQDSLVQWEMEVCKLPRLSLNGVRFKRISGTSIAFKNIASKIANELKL

hERG channel, sequence (Q12809 whole entry): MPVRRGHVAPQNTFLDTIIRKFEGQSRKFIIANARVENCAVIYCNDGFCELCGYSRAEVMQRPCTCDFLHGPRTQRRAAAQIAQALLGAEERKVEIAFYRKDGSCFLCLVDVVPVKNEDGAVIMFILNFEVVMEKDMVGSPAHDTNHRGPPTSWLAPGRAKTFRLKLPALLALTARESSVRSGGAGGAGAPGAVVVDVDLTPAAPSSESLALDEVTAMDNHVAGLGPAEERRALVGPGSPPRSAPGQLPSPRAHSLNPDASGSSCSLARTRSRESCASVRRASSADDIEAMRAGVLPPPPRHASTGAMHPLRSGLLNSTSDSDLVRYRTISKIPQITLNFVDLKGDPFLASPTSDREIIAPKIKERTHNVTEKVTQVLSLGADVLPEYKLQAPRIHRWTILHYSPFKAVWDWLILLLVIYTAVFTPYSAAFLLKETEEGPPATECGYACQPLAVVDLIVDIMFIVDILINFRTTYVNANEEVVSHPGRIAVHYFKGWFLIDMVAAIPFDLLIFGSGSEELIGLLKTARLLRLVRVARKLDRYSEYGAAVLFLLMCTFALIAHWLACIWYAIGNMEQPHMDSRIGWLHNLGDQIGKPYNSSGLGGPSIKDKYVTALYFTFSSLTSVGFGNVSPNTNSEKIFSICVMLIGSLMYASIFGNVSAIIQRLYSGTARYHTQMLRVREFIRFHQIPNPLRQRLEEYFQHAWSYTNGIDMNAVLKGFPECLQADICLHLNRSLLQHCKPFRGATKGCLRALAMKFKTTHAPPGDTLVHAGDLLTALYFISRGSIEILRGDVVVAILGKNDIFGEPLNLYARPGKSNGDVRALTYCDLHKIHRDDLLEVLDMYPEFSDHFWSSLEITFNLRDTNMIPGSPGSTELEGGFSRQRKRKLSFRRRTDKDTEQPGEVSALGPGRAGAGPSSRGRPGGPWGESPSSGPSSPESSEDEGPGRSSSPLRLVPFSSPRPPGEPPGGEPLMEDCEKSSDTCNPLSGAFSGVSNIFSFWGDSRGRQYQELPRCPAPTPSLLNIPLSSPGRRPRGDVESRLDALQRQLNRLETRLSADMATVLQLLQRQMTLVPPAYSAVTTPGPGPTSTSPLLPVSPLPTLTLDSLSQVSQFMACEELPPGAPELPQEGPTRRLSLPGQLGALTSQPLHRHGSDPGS
T2 sequence (O14757 whole entry): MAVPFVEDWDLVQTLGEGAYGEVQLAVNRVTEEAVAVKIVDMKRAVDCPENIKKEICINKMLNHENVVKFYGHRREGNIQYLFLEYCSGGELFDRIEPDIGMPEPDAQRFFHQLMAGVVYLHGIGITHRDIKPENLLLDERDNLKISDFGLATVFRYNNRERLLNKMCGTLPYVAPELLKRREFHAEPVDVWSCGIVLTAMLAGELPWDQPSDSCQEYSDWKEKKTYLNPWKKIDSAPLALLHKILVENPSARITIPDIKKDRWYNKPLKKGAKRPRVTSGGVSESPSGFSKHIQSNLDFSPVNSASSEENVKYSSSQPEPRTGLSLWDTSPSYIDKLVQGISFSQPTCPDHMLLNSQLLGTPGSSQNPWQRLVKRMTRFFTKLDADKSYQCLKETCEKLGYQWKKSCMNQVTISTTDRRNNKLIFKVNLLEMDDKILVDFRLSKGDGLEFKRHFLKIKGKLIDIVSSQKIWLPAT
T4 sequence (P52564 whole entry): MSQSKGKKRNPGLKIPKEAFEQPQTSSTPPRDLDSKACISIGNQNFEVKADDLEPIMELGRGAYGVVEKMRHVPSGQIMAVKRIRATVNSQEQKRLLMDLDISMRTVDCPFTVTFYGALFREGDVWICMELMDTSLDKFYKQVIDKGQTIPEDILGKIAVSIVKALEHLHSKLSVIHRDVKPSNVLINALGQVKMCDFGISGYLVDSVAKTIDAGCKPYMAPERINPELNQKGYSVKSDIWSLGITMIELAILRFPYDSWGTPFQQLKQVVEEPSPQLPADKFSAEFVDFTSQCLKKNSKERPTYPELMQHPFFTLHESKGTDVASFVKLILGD
T1 sequence (Q16584 whole entry): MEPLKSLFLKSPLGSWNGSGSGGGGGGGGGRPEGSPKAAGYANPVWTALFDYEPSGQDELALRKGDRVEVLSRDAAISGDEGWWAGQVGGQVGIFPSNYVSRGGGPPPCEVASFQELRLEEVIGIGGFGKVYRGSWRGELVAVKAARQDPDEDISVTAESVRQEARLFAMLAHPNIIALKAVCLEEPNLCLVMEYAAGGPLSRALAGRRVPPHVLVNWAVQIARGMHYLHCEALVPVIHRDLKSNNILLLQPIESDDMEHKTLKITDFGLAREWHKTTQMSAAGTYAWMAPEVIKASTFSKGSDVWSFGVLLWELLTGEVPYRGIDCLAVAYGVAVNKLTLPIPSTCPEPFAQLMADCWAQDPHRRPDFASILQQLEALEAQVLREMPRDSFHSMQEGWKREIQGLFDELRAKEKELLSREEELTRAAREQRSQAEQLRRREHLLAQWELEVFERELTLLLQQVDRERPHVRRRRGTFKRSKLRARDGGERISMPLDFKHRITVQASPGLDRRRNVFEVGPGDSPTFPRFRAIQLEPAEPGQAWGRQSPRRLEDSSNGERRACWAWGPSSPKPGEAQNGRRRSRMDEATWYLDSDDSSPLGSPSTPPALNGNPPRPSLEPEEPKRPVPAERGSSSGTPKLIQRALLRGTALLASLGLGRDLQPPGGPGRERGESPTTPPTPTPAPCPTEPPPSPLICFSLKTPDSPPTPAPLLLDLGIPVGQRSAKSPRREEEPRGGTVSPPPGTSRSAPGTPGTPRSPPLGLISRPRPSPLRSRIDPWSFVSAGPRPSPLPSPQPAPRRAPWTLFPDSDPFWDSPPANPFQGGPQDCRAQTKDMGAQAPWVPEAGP

## C#Cc1cccc(Nc2ncnc3cc(OC)c(OCCCN4CCOCC4)cc23)c1.Cl [NRC-2694 monohydrochloride, N-(3-ethylnylphenyl)-7-methoxy-6-[3-(4-morpholinyl)propoxy]-4-quinazolinamine mono hydrochloride]
[1]; acute oral gavage, Wistar rats
  maximum tolerated dose (MTD): 1000 mg/kg body weight
[1]; rats
  gross pathological examination: did not reveal any lesions of pathological significance, except minimal uterus distension in two female rats
[1]; rats, G4 1000 mg/kg body wt.
  chromodacryoorhea, incidence: 10/10
  mild to severe lethargy, incidence: 10/10
  piloerection, incidence: 10/10
  ptosis, incidence: 4/10
  weakness, incidence: 1/10
[1]; rats, mid and high dose, days 7 and 14
  body weight and percent body weight change: Statistically significant reduction
[1]; rats, oral gavage, 1000 mg/kg body weight (high dose)
  toxic signs: marked toxic signs with reduction in body weight but devoid of any pathological lesions and mortality
[1]; rats, oral gavage, 250 (low dose) and 500 mg/kg body weight (mid dose)
  major toxic signs or mortality: did not produce any major toxic signs or mortality
[1]; rats, oral, 250, 500 and 1000 mg/kg
  mortality: No mortality
[2]; Wistar rats, 75, 125 and 250 mg/kg b.wt single oral dose
  adverse effects in the functional observational battery: did not show any adverse effects
[2]; Wistar rats, 75, 125 and 250 mg/kg b.wt, 60-120 minutes post treatment
  influence on the parameters of the FOB: no influence on any of the parameters
[3]; beagle dogs, 30 days, orally by capsule
  no observed adverse effect level (NOAEL): 10 mg/kg b.wt/day
[3]; dogs, low dose (G2) 10 mg/kg b.wt/day, 30 days
  symptoms of toxicity: No symptoms of toxicity
[4]
  respiratory parameters: respiratory rate, tidal volume, minute volume, and Penh: did not influence any of the observed parameters
[5]
  mutagenicity in the Ames test: non-mutagenic
[6]; cardiovascular parameters, male Beagle dogs, oral
  no observed effect level: 60 mg/kg b.wt.
[6]
  cardiovascular parameters (blood pressure, pulse pressure, heart rate, QT and QTcf intervals): no significant negative effects

## C#Cc1cccc(Nc2ncnc3cc(OC)c(OCCCN4CCOCC4)cc23)c1 [NRC-2694, N-(3-ethylnylphenyl)-7-methoxy-6-[3-(4-morpholinyl)propoxy]-4-quinazolinamine]
MLK3
  % Ctrl @ 10000 nM: 72 % Ctrl
[1]; rat, in vivo
  MTD, mice compared with rats: the same in mice and rats
CHEK1
  % Ctrl @ 10000 nM: 42 % Ctrl
PKAC-alpha
  % Ctrl @ 10000 nM: 100 % Ctrl
hERG channel
  hERG channel, conclusion: an inhibitor of the hERG channel
[2]; Wistar rats, FOB
  neurotoxicity toward the central and peripheral nervous system: no evidence of neurotoxicity
[3]; beagle dogs
  toxicity compared with Erlotinib: significantly less toxic than Erlotinib HCl
[4]
  respiratory parameters: respiratory rate, tidal volume, minute volume, and Penh: lacks toxicity against respiratory function
MEK6
  % Ctrl @ 10000 nM: 75 % Ctrl
MARK1
  % Ctrl @ 10000 nM: 56 % Ctrl
[5]
  mutagenicity in the Ames test: not mutagenic
[5]; 0.0125-1.2500 mg/plate
  induction of His revertant colonies: lack of statistically significant induction
[6]
  cardiovascular parameters (blood pressure, pulse pressure, heart rate, QT and QTcf intervals): lacks toxicity against cardiovascular function
